# What was measured:
# [1] = system: T1, Receptor-type tyrosine-protein kinase FLT3 (Homo sapiens), P36888 [D835Y]; experiment: Selectivity interaction (KinomeScan (DiscoverX)) EUB0000045b FLT3
# T1 sequence (whole entry): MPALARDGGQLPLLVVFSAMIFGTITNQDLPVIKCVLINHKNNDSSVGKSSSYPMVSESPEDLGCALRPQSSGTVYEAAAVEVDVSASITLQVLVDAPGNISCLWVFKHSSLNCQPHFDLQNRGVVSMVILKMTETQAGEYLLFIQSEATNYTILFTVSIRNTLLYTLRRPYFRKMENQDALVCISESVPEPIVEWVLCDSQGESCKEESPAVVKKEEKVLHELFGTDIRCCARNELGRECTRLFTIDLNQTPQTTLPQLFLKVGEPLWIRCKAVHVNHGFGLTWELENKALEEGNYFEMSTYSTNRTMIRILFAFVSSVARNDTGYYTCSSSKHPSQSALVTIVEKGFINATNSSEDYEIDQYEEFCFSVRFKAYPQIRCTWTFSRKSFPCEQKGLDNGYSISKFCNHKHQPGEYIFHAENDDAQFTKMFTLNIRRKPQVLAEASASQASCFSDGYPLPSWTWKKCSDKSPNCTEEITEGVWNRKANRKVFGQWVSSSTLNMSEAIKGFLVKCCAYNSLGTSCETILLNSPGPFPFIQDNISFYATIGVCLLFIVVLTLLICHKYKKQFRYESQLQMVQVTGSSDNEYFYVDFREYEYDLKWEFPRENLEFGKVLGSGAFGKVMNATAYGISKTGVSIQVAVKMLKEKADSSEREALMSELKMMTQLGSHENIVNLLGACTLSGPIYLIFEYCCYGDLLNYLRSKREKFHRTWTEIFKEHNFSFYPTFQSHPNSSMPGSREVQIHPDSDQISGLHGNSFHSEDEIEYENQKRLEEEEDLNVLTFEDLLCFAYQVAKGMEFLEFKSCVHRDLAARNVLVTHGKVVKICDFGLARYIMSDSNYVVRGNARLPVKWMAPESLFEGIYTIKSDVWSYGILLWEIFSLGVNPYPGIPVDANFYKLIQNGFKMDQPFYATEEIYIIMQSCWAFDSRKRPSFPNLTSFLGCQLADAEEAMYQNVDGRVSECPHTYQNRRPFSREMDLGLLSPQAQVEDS
# [2] = target: T2, Cyclin-dependent kinase-like 2 (Homo sapiens) (UniProt Q92772); experiment: Selectivity interaction (KinomeScan (DiscoverX)) EUB0001079a CDKL2; settings: at 1 µM
# T2 sequence (whole entry): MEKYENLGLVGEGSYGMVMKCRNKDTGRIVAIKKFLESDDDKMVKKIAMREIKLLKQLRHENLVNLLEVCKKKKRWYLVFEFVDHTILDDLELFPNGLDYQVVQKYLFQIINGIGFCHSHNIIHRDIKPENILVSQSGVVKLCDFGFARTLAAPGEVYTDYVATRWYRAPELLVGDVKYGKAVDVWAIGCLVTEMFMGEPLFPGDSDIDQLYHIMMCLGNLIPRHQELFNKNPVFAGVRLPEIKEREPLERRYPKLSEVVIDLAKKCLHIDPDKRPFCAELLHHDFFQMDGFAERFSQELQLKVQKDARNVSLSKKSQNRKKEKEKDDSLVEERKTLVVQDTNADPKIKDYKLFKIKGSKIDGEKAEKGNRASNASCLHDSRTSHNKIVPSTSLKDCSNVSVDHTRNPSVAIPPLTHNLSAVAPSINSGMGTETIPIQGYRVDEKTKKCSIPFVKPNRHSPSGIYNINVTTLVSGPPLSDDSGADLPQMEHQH
# [3] = target: Calcium/calmodulin-dependent protein kinase type II subunit delta (Homo sapiens) (UniProt Q13557); experiment: Selectivity interaction (KinomeScan (DiscoverX)) EUB0001079a CAMK2D; settings: at 1 µM
# Chain of Calcium/calmodulin-dependent protein kinase type II subunit delta (Homo sapiens) (Q13557 whole entry): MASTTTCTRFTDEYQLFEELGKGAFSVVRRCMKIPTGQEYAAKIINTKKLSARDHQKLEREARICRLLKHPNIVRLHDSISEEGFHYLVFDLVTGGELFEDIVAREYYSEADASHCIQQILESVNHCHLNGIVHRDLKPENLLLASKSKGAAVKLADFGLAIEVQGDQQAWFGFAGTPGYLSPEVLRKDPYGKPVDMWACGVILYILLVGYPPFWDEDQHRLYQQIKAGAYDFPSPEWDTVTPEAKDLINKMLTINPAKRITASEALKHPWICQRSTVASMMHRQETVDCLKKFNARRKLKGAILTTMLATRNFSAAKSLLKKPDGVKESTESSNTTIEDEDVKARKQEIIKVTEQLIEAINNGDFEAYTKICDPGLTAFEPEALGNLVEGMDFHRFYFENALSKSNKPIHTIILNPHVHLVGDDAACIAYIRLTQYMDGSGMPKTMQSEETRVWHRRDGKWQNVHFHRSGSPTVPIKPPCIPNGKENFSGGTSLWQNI
# [4] = target: Death-associated protein kinase 1 (Homo sapiens, UniProt P53355); experiment: Selectivity interaction (KinomeScan (DiscoverX)) EUB0001079a DAPK1; settings: at 1 µM
# Chain of Death-associated protein kinase 1 (P53355 whole entry, looked up): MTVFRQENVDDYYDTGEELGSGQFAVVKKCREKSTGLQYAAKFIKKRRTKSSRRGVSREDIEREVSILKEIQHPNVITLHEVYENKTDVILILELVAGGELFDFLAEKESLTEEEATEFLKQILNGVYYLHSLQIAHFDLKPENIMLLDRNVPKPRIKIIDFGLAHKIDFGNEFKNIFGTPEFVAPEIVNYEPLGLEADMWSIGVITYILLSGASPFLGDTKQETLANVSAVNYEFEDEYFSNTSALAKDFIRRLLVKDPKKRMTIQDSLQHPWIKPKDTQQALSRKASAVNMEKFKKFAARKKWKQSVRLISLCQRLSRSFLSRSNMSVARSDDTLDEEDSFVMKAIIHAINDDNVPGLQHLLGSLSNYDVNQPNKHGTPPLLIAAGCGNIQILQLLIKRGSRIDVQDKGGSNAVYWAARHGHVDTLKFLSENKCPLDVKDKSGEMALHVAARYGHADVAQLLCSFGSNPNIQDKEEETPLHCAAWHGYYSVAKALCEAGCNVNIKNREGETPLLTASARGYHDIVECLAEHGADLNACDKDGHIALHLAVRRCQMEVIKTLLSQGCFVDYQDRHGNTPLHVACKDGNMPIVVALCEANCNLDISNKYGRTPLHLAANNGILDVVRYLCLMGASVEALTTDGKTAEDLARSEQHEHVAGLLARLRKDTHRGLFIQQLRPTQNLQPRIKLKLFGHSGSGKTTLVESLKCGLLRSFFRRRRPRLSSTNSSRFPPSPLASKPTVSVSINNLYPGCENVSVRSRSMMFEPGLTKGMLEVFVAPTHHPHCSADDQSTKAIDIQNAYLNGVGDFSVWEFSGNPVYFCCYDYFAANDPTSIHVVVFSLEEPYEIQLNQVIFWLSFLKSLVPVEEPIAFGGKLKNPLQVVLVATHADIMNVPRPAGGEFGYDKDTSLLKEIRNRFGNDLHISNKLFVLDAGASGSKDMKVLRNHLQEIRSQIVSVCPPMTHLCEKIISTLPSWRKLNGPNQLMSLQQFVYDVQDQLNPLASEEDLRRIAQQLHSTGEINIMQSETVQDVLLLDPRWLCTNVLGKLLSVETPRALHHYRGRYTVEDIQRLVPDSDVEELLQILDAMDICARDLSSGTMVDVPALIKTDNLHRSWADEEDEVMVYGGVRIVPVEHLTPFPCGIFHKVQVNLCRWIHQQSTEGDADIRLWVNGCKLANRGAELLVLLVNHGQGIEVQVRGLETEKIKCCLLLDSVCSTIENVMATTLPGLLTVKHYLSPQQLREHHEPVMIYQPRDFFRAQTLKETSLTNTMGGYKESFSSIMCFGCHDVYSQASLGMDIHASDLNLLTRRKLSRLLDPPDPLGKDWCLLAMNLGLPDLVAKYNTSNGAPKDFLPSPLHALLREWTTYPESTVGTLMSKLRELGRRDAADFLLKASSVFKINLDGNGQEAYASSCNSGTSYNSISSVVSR
# [5] = target: Cyclin-dependent kinase 16 (Homo sapiens) (UniProt Q00536); experiment: Selectivity interaction (ActivX KiNativ screen (kinase selectivity in THP-1 cell lysates)) EUB0000639a CDK16; format: subcellular; settings: lysate, at 0.01 µM
# Chain of Cyclin-dependent kinase 16 (Homo sapiens) (Q00536 whole entry): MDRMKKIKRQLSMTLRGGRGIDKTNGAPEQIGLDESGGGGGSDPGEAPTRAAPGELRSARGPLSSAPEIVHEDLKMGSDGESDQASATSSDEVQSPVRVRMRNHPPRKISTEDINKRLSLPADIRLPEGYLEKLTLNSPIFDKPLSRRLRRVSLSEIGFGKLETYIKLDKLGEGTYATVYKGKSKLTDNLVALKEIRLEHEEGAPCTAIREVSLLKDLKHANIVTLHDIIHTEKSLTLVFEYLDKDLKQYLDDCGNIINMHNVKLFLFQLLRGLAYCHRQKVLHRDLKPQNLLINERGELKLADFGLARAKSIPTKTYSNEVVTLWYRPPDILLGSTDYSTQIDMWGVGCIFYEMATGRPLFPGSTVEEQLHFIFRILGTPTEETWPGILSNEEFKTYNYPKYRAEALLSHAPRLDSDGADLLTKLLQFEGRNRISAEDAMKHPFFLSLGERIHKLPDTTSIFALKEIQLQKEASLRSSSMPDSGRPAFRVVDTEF
# [6] = target: Epidermal growth factor receptor (Homo sapiens, UniProt P00533); experiment: Selectivity interaction (Kinase panel (Invitrogen)) EUB0000639a EGFR; settings: at 200 nM
# Chain of Epidermal growth factor receptor (P00533 whole entry): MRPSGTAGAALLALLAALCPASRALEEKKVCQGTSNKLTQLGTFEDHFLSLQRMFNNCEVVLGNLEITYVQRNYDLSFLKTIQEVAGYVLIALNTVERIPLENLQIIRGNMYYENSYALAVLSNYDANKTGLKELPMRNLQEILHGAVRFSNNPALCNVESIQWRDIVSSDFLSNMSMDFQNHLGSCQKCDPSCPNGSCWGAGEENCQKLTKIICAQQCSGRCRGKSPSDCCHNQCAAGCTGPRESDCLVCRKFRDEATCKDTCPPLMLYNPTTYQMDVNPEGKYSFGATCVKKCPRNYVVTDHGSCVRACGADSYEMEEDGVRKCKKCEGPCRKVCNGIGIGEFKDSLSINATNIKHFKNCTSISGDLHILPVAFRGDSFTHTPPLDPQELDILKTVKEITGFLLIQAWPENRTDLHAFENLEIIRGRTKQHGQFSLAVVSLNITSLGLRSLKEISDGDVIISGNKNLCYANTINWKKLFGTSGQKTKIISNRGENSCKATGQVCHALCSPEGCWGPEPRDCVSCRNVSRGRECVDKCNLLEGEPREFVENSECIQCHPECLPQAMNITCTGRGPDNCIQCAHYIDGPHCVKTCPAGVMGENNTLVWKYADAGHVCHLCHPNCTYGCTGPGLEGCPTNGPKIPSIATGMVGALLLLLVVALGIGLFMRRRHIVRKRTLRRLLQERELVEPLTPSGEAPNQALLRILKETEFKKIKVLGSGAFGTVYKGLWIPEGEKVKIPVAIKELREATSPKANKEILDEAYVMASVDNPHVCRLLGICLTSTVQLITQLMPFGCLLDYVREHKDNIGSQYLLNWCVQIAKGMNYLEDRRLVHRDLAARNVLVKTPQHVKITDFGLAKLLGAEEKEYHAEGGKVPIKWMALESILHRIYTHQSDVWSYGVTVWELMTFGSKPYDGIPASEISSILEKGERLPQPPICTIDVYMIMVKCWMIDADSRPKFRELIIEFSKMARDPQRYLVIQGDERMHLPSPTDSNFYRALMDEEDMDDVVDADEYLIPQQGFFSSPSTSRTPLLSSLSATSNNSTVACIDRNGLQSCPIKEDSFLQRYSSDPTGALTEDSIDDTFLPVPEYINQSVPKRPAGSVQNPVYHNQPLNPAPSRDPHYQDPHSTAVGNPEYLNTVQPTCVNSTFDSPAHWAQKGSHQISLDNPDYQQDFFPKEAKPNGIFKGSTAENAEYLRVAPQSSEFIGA
# [7] = target: Vascular endothelial growth factor receptor 1 (Homo sapiens) (UniProt P17948); experiment: Selectivity interaction (KinomeScan (DiscoverX)) EUB0000699a FLT1; settings: at 10 µM
# Chain of Vascular endothelial growth factor receptor 1 (Homo sapiens) (P17948 whole entry): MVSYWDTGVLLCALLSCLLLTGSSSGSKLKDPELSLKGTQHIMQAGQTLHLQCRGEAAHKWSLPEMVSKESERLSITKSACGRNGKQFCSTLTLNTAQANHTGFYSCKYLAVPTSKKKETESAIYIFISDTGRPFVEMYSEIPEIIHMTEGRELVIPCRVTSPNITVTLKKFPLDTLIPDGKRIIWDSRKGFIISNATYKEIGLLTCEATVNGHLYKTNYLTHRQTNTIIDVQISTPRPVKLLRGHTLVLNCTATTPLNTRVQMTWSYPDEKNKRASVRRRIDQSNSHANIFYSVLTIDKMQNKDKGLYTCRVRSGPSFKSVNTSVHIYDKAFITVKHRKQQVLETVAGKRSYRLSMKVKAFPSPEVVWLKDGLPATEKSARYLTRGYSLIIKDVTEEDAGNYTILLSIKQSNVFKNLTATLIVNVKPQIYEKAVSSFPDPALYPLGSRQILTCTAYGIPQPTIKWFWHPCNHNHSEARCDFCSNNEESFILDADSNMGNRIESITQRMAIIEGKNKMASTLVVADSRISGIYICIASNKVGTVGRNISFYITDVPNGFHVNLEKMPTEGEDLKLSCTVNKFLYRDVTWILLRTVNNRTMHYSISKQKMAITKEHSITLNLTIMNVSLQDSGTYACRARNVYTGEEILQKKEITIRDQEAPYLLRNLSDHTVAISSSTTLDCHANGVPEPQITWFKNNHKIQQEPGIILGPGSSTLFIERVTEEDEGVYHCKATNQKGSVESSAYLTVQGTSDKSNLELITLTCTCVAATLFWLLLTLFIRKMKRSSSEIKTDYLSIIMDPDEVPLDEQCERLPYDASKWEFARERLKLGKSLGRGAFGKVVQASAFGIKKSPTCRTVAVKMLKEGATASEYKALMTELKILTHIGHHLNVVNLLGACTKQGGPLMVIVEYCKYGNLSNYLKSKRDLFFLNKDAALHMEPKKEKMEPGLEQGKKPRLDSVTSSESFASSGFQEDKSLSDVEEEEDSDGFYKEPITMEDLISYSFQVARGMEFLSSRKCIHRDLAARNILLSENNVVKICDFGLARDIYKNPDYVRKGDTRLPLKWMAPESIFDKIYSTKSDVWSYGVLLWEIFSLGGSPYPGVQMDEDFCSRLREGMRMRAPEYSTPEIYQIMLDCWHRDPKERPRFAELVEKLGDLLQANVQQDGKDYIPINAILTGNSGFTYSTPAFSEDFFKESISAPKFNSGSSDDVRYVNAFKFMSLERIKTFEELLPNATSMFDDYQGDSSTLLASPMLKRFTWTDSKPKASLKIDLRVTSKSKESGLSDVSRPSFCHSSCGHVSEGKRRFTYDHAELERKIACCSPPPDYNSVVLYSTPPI
# [8] = target: T3, Tyrosine-protein kinase TXK (Homo sapiens) (UniProt P42681); experiment: Selectivity interaction (Ambit KINOMEscan and KiNATiv profiling in Jurkat cells) EUB0000090b TXK; format: cell-based; settings: at 1 µM
# T3 sequence (whole entry): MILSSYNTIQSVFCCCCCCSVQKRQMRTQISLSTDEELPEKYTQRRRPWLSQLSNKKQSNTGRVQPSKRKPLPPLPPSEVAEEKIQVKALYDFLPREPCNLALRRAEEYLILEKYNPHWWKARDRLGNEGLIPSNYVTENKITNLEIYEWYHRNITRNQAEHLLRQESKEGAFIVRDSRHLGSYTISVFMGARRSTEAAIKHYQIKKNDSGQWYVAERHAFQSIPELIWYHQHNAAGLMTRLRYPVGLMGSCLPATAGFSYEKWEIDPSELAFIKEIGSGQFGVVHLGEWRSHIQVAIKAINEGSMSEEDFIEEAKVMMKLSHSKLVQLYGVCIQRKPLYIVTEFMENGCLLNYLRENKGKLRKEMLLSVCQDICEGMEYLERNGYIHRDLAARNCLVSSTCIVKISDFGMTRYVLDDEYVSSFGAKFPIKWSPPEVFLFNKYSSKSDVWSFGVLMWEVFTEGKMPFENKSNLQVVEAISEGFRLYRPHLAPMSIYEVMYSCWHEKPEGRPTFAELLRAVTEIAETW
compound,measurement,setting,value
C=CC(=O)Nc1cc(-n2c(=O)ccc3cnc4ccc(-c5ccc(NS(C)(=O)=O)cc5)cc4c32)ccc1C,% of control,[1]; at 1 µM,100%
same,% of control,[1]; at 10 µM,100%
Nc1cnc(N2CCc3cc(S(=O)(=O)Nc4c(F)cc(Cl)cc4F)cc(N4CCCC4=O)c32)nc1 [TP-020n],% of control,[2],85%
same,% of control,[3],100%
same,% of control,[4],100%
CC[C@@H]1[C@H](F)C(=O)N[C@@H]1COc1nccc2cc(C(N)=O)c(OC)cc12 [ZIMLOVISERTIB],% of inhibition,[5],-0.6%
same,% of inhibition,[6],1.86%
CCN(CC)CCCCNc1ncc2cc(-c3cc(OC)cc(OC)c3)c(NC(=O)NC(C)(C)C)nc2n1,% of control,[7],8%
CN(C)C/C=C/C(=O)Nc1ccc(C(=O)N2CCCC(Nc3ncc(Cl)c(-c4c[nH]c5ccccc45)n3)C2)cc1 (centres undefined),% of control,[8],94%

# From ChEMBL document CHEMBL5465560, “Selectivity Literature for EUbOPEN Chemogenomic Library” (2024)
